Laboratory results as given in the NIST ThermoML archive (doi:10.1016/j.fluid.2014.05.031).
Values joined by “and” are separate entries in the source; they are usually repeats but may differ in a detail not shown here. Identical values can stand only once. ± gives the expanded uncertainty stated by the source.

Test: excess molar enthalpy (molar enthalpy of mixing); xn = mol fraction of the nth substance listed
Conditions: Liquid, Flow calorimetry

CC(=O)O [acetic acid] + CCO
323.15 K, 1548 kPa
Conditions | excess molar enthalpy [kcal/mol]
x1 = 0.0247 | 0.0108 ± 0.00813
x1 = 0.0493 | 0.0202 ± 0.0108
x1 = 0.0987 | 0.0347 ± 0.0146
x1 = 0.1729 | 0.0468 ± 0.00693
x1 = 0.2473 | 0.0514 ± 0.00167
x1 = 0.3467 | 0.0507 ± 0.00263
x1 = 0.4464 | 0.0435 ± 0.00478
x1 = 0.5464 | 0.0354 ± 0.00526
x1 = 0.6467 | 0.0265 ± 0.00502
x1 = 0.7473 | 0.0192 ± 0.0043
x1 = 0.8229 | 0.0145 ± 0.00406
x1 = 0.8987 | 0.0093 ± 0.00478
x1 = 0.9493 | 0.00504 ± 0.00382
x1 = 0.9746 | 0.0028 ± 0.00239

CC(=O)O [acetic acid] + CCOC(C)=O
323.15 K, 1548 kPa
Conditions | excess molar enthalpy [kcal/mol]
x2 = 0.0148 | -0.00177 ± 0.00151
x2 = 0.03 | -0.00354 ± 0.00234
x2 = 0.0613 | -0.00636 ± 0.00263
x2 = 0.1108 | -0.00925 ± 0.00182
x2 = 0.1637 | -0.0104 ± 0.00148
x2 = 0.2403 | -0.00942 ± 0.00184
x2 = 0.3246 | -0.00631 ± 0.00287
x2 = 0.4179 | -0.00131 ± 0.00359
x2 = 0.5217 | 0.00523 ± 0.00406
x2 = 0.6379 | 0.0129 ± 0.00359
x2 = 0.7347 | 0.0174 ± 0.00201
x2 = 0.8409 | 0.0188 ± 0.0012
x2 = 0.9178 | 0.0152 ± 0.00287
x2 = 0.9582 | 0.0105 ± 0.00311

CCO [ethanol] + O
Conditions | excess molar enthalpy [kcal/mol]
333.15 K, 1824 kPa, x1 = 0.0079 | -0.00954 ± 0.00098
333.15 K, 1824 kPa, x1 = 0.016 | -0.019 ± 0.00103
333.15 K, 1824 kPa, x1 = 0.0333 | -0.037 ± 0.000956
333.15 K, 1824 kPa, x1 = 0.0519 | -0.0519 ± 0.0012
333.15 K, 1824 kPa, x1 = 0.0719 | -0.0636 ± 0.0012
333.15 K, 1824 kPa, x1 = 0.0936 | -0.071 ± 0.0012
333.15 K, 1824 kPa, x1 = 0.1172 | -0.0736 ± 0.0012
333.15 K, 1824 kPa, x1 = 0.143 | -0.0731 ± 0.0012
333.15 K, 1824 kPa, x1 = 0.1712 | -0.0688 ± 0.0012
333.15 K, 1824 kPa, x1 = 0.2023 | -0.0619 ± 0.0012
333.15 K, 1824 kPa, x1 = 0.2366 | -0.0552 ± 0.0012
333.15 K, 1824 kPa, x1 = 0.2747 | -0.0454 ± 0.0012
333.15 K, 1824 kPa, x1 = 0.3173 | -0.0351 ± 0.000956
333.15 K, 1824 kPa, x1 = 0.3653 | -0.0241 ± 0.000956
333.15 K, 1824 kPa, x1 = 0.4196 | -0.0125 ± 0.00098
333.15 K, 1824 kPa, x1 = 0.4818 | -0.00174 ± 0.00098
333.15 K, 1824 kPa, x1 = 0.5535 | 0.00655 ± 0.00098
333.15 K, 1824 kPa, x1 = 0.6372 | 0.00999 ± 0.00098
333.15 K, 1824 kPa, x1 = 0.7361 | 0.00746 ± 0.00098
333.15 K, 1824 kPa, x1 = 0.8548 | 0.000143 ± 0.00098
333.15 K, 1824 kPa, x1 = 0.9236 | -0.0037 ± 0.00098
333.15 K, 1824 kPa, x1 = 0.9608 | -0.00289 ± 0.00098
363.15 K, 1203 kPa, x1 = 0.0079 | -0.00268 ± 0.00098
363.15 K, 1203 kPa, x1 = 0.016 | -0.00562 ± 0.00098
363.15 K, 1203 kPa, x1 = 0.0333 | -0.0111 ± 0.00098
363.15 K, 1203 kPa, x1 = 0.0518 | -0.0141 ± 0.001
363.15 K, 1203 kPa, x1 = 0.0719 | -0.014 ± 0.001
363.15 K, 1203 kPa, x1 = 0.0936 | -0.0108 ± 0.00098
363.15 K, 1203 kPa, x1 = 0.1172 | -0.00483 ± 0.00098
363.15 K, 1203 kPa, x1 = 0.143 | 0.00375 ± 0.00098
363.15 K, 1203 kPa, x1 = 0.1712 | 0.0131 ± 0.001
363.15 K, 1203 kPa, x1 = 0.2022 | 0.0237 ± 0.00103
363.15 K, 1203 kPa, x1 = 0.2365 | 0.0344 ± 0.000956
363.15 K, 1203 kPa, x1 = 0.2746 | 0.0457 ± 0.0012
363.15 K, 1203 kPa, x1 = 0.3173 | 0.0576 ± 0.0012
363.15 K, 1203 kPa, x1 = 0.3652 | 0.0688 ± 0.0012
363.15 K, 1203 kPa, x1 = 0.4196 | 0.0793 ± 0.0012
363.15 K, 1203 kPa, x1 = 0.4817 | 0.0858 ± 0.0012
363.15 K, 1203 kPa, x1 = 0.5534 | 0.0875 ± 0.0012
363.15 K, 1203 kPa, x1 = 0.6371 | 0.0813 ± 0.0012
363.15 K, 1203 kPa, x1 = 0.736 | 0.0641 ± 0.0012
363.15 K, 1203 kPa, x1 = 0.8548 | 0.0351 ± 0.000956
363.15 K, 1203 kPa, x1 = 0.9236 | 0.018 ± 0.001
383.15 K, 1500 kPa, x1 = 0.0333 | 0.00287 ± 0.00098
383.15 K, 1500 kPa, x1 = 0.0719 | 0.0147 ± 0.001
383.15 K, 1500 kPa, x1 = 0.1172 | 0.0339 ± 0.000956
383.15 K, 1500 kPa, x1 = 0.1712 | 0.0588 ± 0.0012
383.15 K, 1500 kPa, x1 = 0.2365 | 0.0858 ± 0.0012
383.15 K, 1500 kPa, x1 = 0.3173 | 0.112 ± 0.00143
383.15 K, 1500 kPa, x1 = 0.4196 | 0.132 ± 0.00143
383.15 K, 1500 kPa, x1 = 0.5534 | 0.138 ± 0.00143
383.15 K, 1500 kPa, x1 = 0.6371 | 0.13 ± 0.00143
383.15 K, 1500 kPa, x1 = 0.736 | 0.106 ± 0.00143
383.15 K, 1500 kPa, x1 = 0.7926 | 0.0887 ± 0.0012
383.15 K, 1500 kPa, x1 = 0.8548 | 0.0645 ± 0.0012
383.15 K, 1500 kPa, x1 = 0.9236 | 0.0349 ± 0.000956

CCOC(C)=O [ethyl acetate] + CCO
Conditions | excess molar enthalpy [kcal/mol]
363.15 K, 1548 kPa, x1 = 0.0151 | 0.0233 ± 0.001
363.15 K, 1548 kPa, x1 = 0.0305 | 0.0473 ± 0.0012
363.15 K, 1548 kPa, x1 = 0.0624 | 0.0937 ± 0.0012
363.15 K, 1548 kPa, x1 = 0.0956 | 0.138 ± 0.00143
363.15 K, 1548 kPa, x1 = 0.1302 | 0.1809 ± 0.00167
363.15 K, 1548 kPa, x1 = 0.1664 | 0.2213 ± 0.00191
363.15 K, 1548 kPa, x1 = 0.2042 | 0.2588 ± 0.00215
363.15 K, 1548 kPa, x1 = 0.2438 | 0.2935 ± 0.00239
363.15 K, 1548 kPa, x1 = 0.2853 | 0.3284 ± 0.00263
363.15 K, 1548 kPa, x1 = 0.3288 | 0.3559 ± 0.00287
363.15 K, 1548 kPa, x1 = 0.3745 | 0.3781 ± 0.00311
363.15 K, 1548 kPa, x1 = 0.4226 | 0.3984 ± 0.00335
363.15 K, 1548 kPa, x1 = 0.4732 | 0.4104 ± 0.00335
363.15 K, 1548 kPa, x1 = 0.5265 | 0.4087 ± 0.00335
363.15 K, 1548 kPa, x1 = 0.5828 | 0.4039 ± 0.00335
363.15 K, 1548 kPa, x1 = 0.6424 | 0.3867 ± 0.00311
363.15 K, 1548 kPa, x1 = 0.7054 | 0.3552 ± 0.00287
363.15 K, 1548 kPa, x1 = 0.7724 | 0.305 ± 0.00263
363.15 K, 1548 kPa, x1 = 0.8435 | 0.2323 ± 0.00215
363.15 K, 1548 kPa, x1 = 0.9192 | 0.133 ± 0.00143
363.15 K, 1548 kPa, x1 = 0.9589 | 0.0698 ± 0.0012
413.15 K, 1307 kPa, x1 = 0.0151 | 0.0258 ± 0.0012
413.15 K, 1307 kPa, x1 = 0.0306 | 0.0531 ± 0.0012
413.15 K, 1307 kPa, x1 = 0.0624 | 0.105 ± 0.00143
413.15 K, 1307 kPa, x1 = 0.0956 | 0.154 ± 0.00167
413.15 K, 1307 kPa, x1 = 0.1302 | 0.201 ± 0.00191
413.15 K, 1307 kPa, x1 = 0.1664 | 0.2457 ± 0.00215
413.15 K, 1307 kPa, x1 = 0.2042 | 0.2863 ± 0.00239
413.15 K, 1307 kPa, x1 = 0.2438 | 0.325 ± 0.00263
413.15 K, 1307 kPa, x1 = 0.2853 | 0.359 ± 0.00287
413.15 K, 1307 kPa, x1 = 0.3288 | 0.3879 ± 0.00311
413.15 K, 1307 kPa, x1 = 0.3745 | 0.4123 ± 0.00335
413.15 K, 1307 kPa, x1 = 0.4226 | 0.4238 ± 0.00359
413.15 K, 1307 kPa, x1 = 0.4732 | 0.4338 ± 0.00359
413.15 K, 1307 kPa, x1 = 0.5265 | 0.4331 ± 0.00359
413.15 K, 1307 kPa, x1 = 0.5829 | 0.4218 ± 0.00335
413.15 K, 1307 kPa, x1 = 0.6424 | 0.3975 ± 0.00335
413.15 K, 1307 kPa, x1 = 0.7055 | 0.359 ± 0.00287
413.15 K, 1307 kPa, x1 = 0.7724 | 0.3014 ± 0.00263
413.15 K, 1307 kPa, x1 = 0.8435 | 0.2244 ± 0.00191
413.15 K, 1307 kPa, x1 = 0.9192 | 0.125 ± 0.00143
413.15 K, 1307 kPa, x1 = 0.9589 | 0.066 ± 0.0012

CCOC(C)=O [ethyl acetate] + O
353.15 K, 1272 kPa
Conditions | excess molar enthalpy
x1 = 0.0096 | 0.005 ± 0.00478 kcal/mol
x1 = 0.0201 | 0.0107 ± 0.00932 kcal/mol
x1 = 0.0441 | 0.0219 ± 0.0206 kcal/mol
x1 = 0.058 | 0.0284 ± 0.0287 kcal/mol
x1 = 0.0733 | 0.0356 ± 0.0287 kcal/mol
x1 = 0.0905 | 0.0435 kcal/mol and 0.0437 kcal/mol
x1 = 0.1096 | 0.0526 ± 0.0287 kcal/mol
x1 = 0.1313 | 0.0631 ± 0.0287 kcal/mol
x1 = 0.1559 | 0.0743 ± 0.0287 kcal/mol
x1 = 0.1842 | 0.087 ± 0.0287 kcal/mol
x1 = 0.2169 | 0.103 ± 0.0287 kcal/mol
x1 = 0.2554 | 0.121 ± 0.0287 kcal/mol
x1 = 0.3012 | 0.142 ± 0.0287 kcal/mol
x1 = 0.3565 | 0.168 ± 0.0287 kcal/mol
x1 = 0.4249 | 0.2 ± 0.0287 kcal/mol
x1 = 0.5114 | 0.24 ± 0.0287 kcal/mol
x1 = 0.5639 | 0.264 ± 0.0287 kcal/mol
x1 = 0.6244 | 0.293 ± 0.0287 kcal/mol
x1 = 0.6949 | 0.324 ± 0.00454 kcal/mol
x1 = 0.8258 | 0.287 ± 0.0454 kcal/mol
x1 = 0.8781 | 0.225 ± 0.0335 kcal/mol
x1 = 0.9359 | 0.141 ± 0.0789 kcal/mol
